Series [1] concerns AhR. Kind of series: XRE reporter assay for AD evaluation (AD cell model). As to conditions: for inhibitory effect in the AD cell model, compared in words: 0.5 μM FICZ, XRE-NLuc::HaCaT, not as strong as linalyl acetate; for inhibitory effect in the AD cell model, compared in words / IC50: 24 h; for IC50: Homo sapiens, read-out: IC50 of inhibition of AD (XRE reporter expression).

Series [2] has as its system ARE-NLuc::HaCaT.
Series [3] relates to ARE-NLuc::HaCaT. The source holds these as a separate data set.
Series [4] concerns ARE-NLuc::HaCaT. Kind of series: Keratinocyte activation assay (ARE reporter assay, OECD TG442D). As to conditions: 48 h; positive criteria of TG442D. For orientation: Reporter assays use an easily measured gene product as a stand-in for the process of interest.
In series [5] the test system is ARE-NLuc::HaCaT. Kind of series: Cell viability (WST-1) in the keratinocyte activation assay. Conditions: 48 h, mean ± SD of three experiments.
The subject of series [6] is AhR. Briefly: AhR mRNA level by qPCR in HaCaT cells. As to conditions: FICZ with or without linalyl acetate or linalool, 24 h. It counts as cell-based, human. (In general: In qPCR the cycle at which signal appears reflects the starting amount.)
Series [7] deals with ARNT. Kind of series: ARNT protein level by western blotting in HaCaT cells. It counts as cell-based, human. As to conditions: FICZ alone, 24 h. (Immunoblotting shows a protein as a band on a membrane.)
Text: All the Western blots are shown from two (anti-ARNT) or three (anti-AhR and anti-gamma tubulin) independent experiments. […] The intensities are relative to the vehicle set at 1.
Series [8] deals with ARNT. Kind of series: ARNT mRNA level by qPCR in HaCaT cells. In kind it is cell-based, human. As to conditions: FICZ with or without linalyl acetate or linalool, 24 h.
Text: Briefly, the total RNA was extracted, and reverse transcribed using SuperPrep II Cell Lysis & RT Kit for qPCR (#SCQ-401, Toyobo, Tokyo, Japan), according to the manufacturer’s instructions. The cDNA obtained was subjected to a quantitative polymerase chain reaction (qPCR) with THUNDERBIRD Next SYBR qPCR Mix (#QPX-201, Toyobo) according to the manufacturer’s protocol using the StepOne Real-Time PCR System (Thermo Fisher Japan, Tokyo, Japan). The expression of each gene obtained using qPCR was normalized to that of glyceraldehyde-3-phosphate dehydrogenase (GAPDH). […] The cycle threshold (Ct) value of GAPDH in each sample was used as an internal control.
Total RNA was then extracted and reverse transcribed to cDNA that was subjected to qPCR using the primer set listed in S2 Table in S1 File. AhR and ARNT expression was normalized to GAPDH expression. Fold induction was calculated as the vehicle set at 1. Values in the graphs represent the mean ± SD of two independent experiments. […] All the Western blots are shown from two (anti-ARNT) or three (anti-AhR and anti-gamma tubulin) independent experiments. […] The intensities are relative to the vehicle set at 1.
Series [9] deals with CD86 on U937 cells. More on the design: method as in PMID 23576290. Conditions: cited from earlier work.
The test system of a further series is Artemin. Kind of series: FICZ-induced Artemin mRNA expression by qPCR in HaCaT cells. It counts as cell-based. As to conditions: Homo sapiens, 24 h, read-out: IC50 of decrease of FICZ-induced Artemin expression.
The conditions of series [10]: cited from earlier work.
A further series deals with HaCaT cells. Briefly: RNAseq on treated HaCaT cells analysed by DisGeNET-Metascape. In kind it is cell-based, human. Conditions: authors' reply to reviewer, data not shown. From the text: Thank you for your comment. […] To clarify that our conclusion is limited, we have added some words in the revised Discussion section.
Series [11] relates to CD86 on U937 cells. As to conditions: for CD86+ FL1 positivity (%): 200 µg/mL, control printed for each of three test series.
The subject of series [12] is U937 cells. As to conditions: human.
The conditions of series [13]: cited from earlier work. The source holds these as a separate data set.
For series [14], the system named is AhR. Kind of series: AhR protein level by western blotting in HaCaT cells. In kind it is cell-based, human. Conditions: FICZ and linalyl acetate, 24 h. The protocol:
Sodium dodecyl sulfate–polyacrylamide gel electrophoresis (SDS–PAGE) and western blotting were performed as described previously. Cell lysates were prepared in lysis buffer [10 mM HEPES-KOH, pH 7.4, 100 mM KCl, 1 mM MgCl2, 1% Triton X-100, and protease inhibitor cocktails (Nacalai)]. After incubation for 10 min on ice, the lysate was clarified by centrifugation at 14,000 × g for 10 min. The supernatants were then subjected to SDS–PAGE on a 7.5% gel (Bio-Rad). The gel was electrotransferred to polyvinylidene fluoride or polyvinylidene difluoride membranes (pore size: 0.45 μm, Merck Group Japan, Tokyo, Japan). The proteins on the membrane were detected by incubation with diluted anti-AhR, anti-ARNT (Santa Cruz Biotechnology, Cosmo Bio Co., LTD, Tokyo, Japan), and anti-γ-tubulin (Sigma, Sigma-Aldrich Japan, Tokyo, Japan) followed by HRP-conjugated anti-mouse immunoglobulin G (Cell Signaling, CST Japan, Tokyo, Japan) using a charge-coupled device camera.
Next, we measured the mRNA and protein expression of AhR and ARNT by qPCR and western blotting, respectively.
Total RNA was then extracted and reverse transcribed to cDNA that was subjected to qPCR using the primer set listed in S2 Table in S1 File. […] Fold induction was calculated as the vehicle set at 1. […] The right-side numbers are experimental numbers. d) Band intensity of each lane was quantified by ImageJ and normalized to […]. […]

Series [15] relates to U937 cells. Briefly: Cell viability (PI staining) in the dendritic cell activation assay. Conditions: 200 µg/mL, control printed for each of three test series.
Test in series [16]: as above
As to conditions: human, U937 cells, %Viability, control printed for each of three test series.

The source of these data is publication PMC10769034, “Aromatic oil from lavender as an atopic dermatitis suppressant” (PLOS ONE, 2024).

Where “and” joins values, the source holds several entries; their conditions need not be identical. Equal entries are not always repeated. Where two headings read alike, the source gives them in different places. Where only a bound is given, the exact number is not on record here.

On to `C=CC(C)(O)CCCC(C)C` (centres unmarked) [DHL, 6,7-Dihydrolinalool], for which the “inhibitory effect in the AD cell model, compared in words” value with AhR [1] is “stronger inhibitory effects than linalool”. In the series with ARE-NLuc::HaCaT [2], the CV70 came out at 1319 ± 52.3 µM. The “outcome of the keratinocyte activation assay” value in the series on ARE-NLuc::HaCaT [3] is reported as “weakly positive”.
Turning to `C=C(C)C(=O)OCCOC(=O)C(=C)C` [Ethylene glycol dimethacrylate, ethylene glycol dimethacrylate, reference compound], the “outcome of the keratinocyte activation assay” value in the series with ARE-NLuc::HaCaT [4] is given as “positive”. For the same compound, the CV70 in the series on ARE-NLuc::HaCaT [5] and in the series on ARE-NLuc::HaCaT [5] (listed as EGDMA) was 523 ± 59.0 µM each time.
Consider `O=Cc1c2[nH]c3ccccc3c2cc2[nH]c3ccccc3c12` [FICZ, 6-formylindolo[3,2-b]carbazole], for which the “AhR mRNA level” value with AhR [6] is listed as “did not change”. In addition, in the series on ARNT [7], the ARNT protein level entry is on record as “increased”. Also, in the series with ARNT [8], the “ARNT mRNA level” value is reported as “did not change”.
The term IC50 denotes the concentration at which inhibition is half-maximal. Take `C=CC(C)(O)CCC=C(C)C` (centres unmarked) [Linalool]: the “outcome of the dendritic cell activation assay” value in the series with CD86 on U937 cells [9] is recorded as “positive”. In addition, the “outcome of the keratinocyte activation assay” value in the series with ARE-NLuc::HaCaT [4] is recorded as “negative”. The “AhR mRNA level” value with AhR [6] was “did not change”. The IC50 in the series with Artemin (5 μM FICZ, qPCR normalized to GAPDH) is 194 µM; in the series on AhR [1], above 1000 µM. Further, in [10], the “Patch test (human)” value was 0.2% positive ^##, ^###. The CV70 in the series on ARE-NLuc::HaCaT [5] is above 2000 µM.
In the case of `C=CC(C)(CCC=C(C)C)OC(C)=O` (centres unmarked) [Linalyl acetate], in the series on HaCaT cells, the “evidence of contact allergy in RNAseq” value was “no evidence of contact allergy”. Also, in the series with CD86 on U937 cells [11], the “S.I. value of CD86” value is listed as “less than 150”. The “outcome of the dendritic cell activation assay” value in the series with CD86 on U937 cells [11] is on record as “negative”. Moreover, the “outcome of the keratinocyte activation assay” value in the series with ARE-NLuc::HaCaT [4] is recorded as “weakly positive”. The “AhR mRNA level” value in the series on AhR [6] is reported as “did not change”. The figures for the IC50 in the series with Artemin and in the series on AhR [1] were 3.6 µM and 519 µM, respectively. Moreover, the patch test entry in series [10] was “negativity”. The CV70 in the series with U937 cells [12] turned out to be 16 ± 3.8 µg/mL; with ARE-NLuc::HaCaT [5], 1466 ± 45.4 µM. In series [13], the “Key event 4, Local lymph node assay” value is listed as “weak positivity”. Also, the XRE reporter expression entry with AhR [1] (without activation of AhR by FICZ) is “decreased XRE reporter expression”. The “reduction of AhR protein level compared with FICZ alone” value in the series on AhR [14] is “approximately 30%”.
Regarding `CCC(C)(O)CCCC(C)C` (centres unmarked) [THL, tetrahydrolinalool], in the series on AhR [1], the “inhibitory effect in the AD cell model, compared in words” value is reported as “stronger inhibitory effects than linalool”. The CV70 in the series on ARE-NLuc::HaCaT [2] was found to be 1416 ± 90.6 µM. The “outcome of the keratinocyte activation assay” value in the series on ARE-NLuc::HaCaT [3] is listed as “weakly positive”.
As a reminder, the viability is a read-out of living cells in per cent, often relative to untreated cells. For the compound `CC(O)C(=O)O` (centres unmarked) [lactic acid], the “CD86+ FL1 positivity (%)” value in the series on CD86 on U937 cells [11] (Experiment 1, 48 h) is 11.5% and 10.1%; in the series on CD86 on U937 cells [11] (Experiment 2, 48 h), 8.4% and 12.6% and 11.7%. The “%Viability” value with U937 cells [15] (Experiment 1, 48 h) is 96.2%; in the series with U937 cells [15] (Experiment 2, 48 h) it was 95.4% and 94.4%. In addition, the viability at 48 h, 200 µg/mL in [16] (Experiment 1, 48 h) stood at 97.4%; in series [16] (Experiment 2, 48 h), 96.4%.
